Test results as given in patent US20070231838A1, “Method for the assay of rock kinase activity in cells” (priority 2006, published 2007).

Tested on: ROCK kinase
Experiment: Immunoblotting of MYPT1 phosphorylation in Panc-1 cells treated with ROCK inhibitors
Format: cell-based, human
Settings: for rank order of potency for reduction of MYPT1 phosphorylation: 1 h incubation, immunoblotting (FIG. 5A)
Method: FIG. 3: Extraction of cytoskeletal substrates of ROCK1/ROCK2 from Pancd cell extracts: (A) Panc-1 cells were incubated in the presence and absence of 10 μM ROCK inhibitor Y27632 for 1 h followed by lysis in the indicated buffers. Equal fractions of cell lysate were analyzed by immunoblotting for pMYPT1 (T696 or T853), total MYPT1, pMLC (S19) and total MLC. (B) 10 μL aliquots of Panc-1 cell lysate prepared in PROTEOEXTRACT® buffer (or buffer alone for control wells) were diluted in buffer A as indicated prior to addition to MYPT1 antibody-coated ELISA assay plate wells. Quantitation of the extent of MYPT1 (T853) phosphorylation was performed in triplicate assay wells as described in the methods section. Results plotted are mean signal intensities, error bars represent Standard Deviations.
FIG. 4: Time course of reduction of MYPT1 phosphorylation bv ROCK inhibitors in Pancl cells: Panc-1 cells were incubated in the presence and absence of 10 μM ROCK inhibitor Y27632 for the indicated time points followed by lysis in SDS-PAGE sample buffer. Equal fractions of cell lysate were then analyzed by immunoblotting for pMYPT1 (T696 or T853) and total MYPT1 protein.
FIG. 5: Effect of ROCK inhibitors on MYPT1 (T853) phosphorylation in Panc-1 cells: (A) Panc-1 cells were incubated in the presence and absence of the indicated concentrations of ROCK inhibitors H1152, Y27632 or HA1077 for 1 h, followed by lysis in SDS-PAGE sample buffer. Equal fractions of cell lysate were then analyzed by immunoblotting for pMYPT1 (T696 or T853) and total MYPT1 protein. (B) Panc1 cells were grown in 96-well culture plates, and incubated for 1 h with the indicated concentrations of compound ROCK inhibitors H1152, Y27632 or HA1077. Lysates were then prepared in PROTEOEXTRACT® buffer, and analyzed in the pMYPT1 (T853) ELISA assay as described in the Methods section.
Human cancer cell lines were purchased from the American Type Culture Collection (ATCC). Panc-1 cells were grown in Dulbecco's modified Eagle's medium with 2 mM L-glutamine adjusted to contain 3.7 g/L sodium bicarbonate and 4.5 g/L glucose, 10% fetal bovine serum. All other cell lines were grown in media as prescribed by the ATCC, containing 10% FCS.
Lysates were prepared from cultured cells, following a brief rinse in PBS, using several different buffers. Buffer A (50 mM Tris-HCl, pH 7.4, 150 mM NaCl, 10% glycerol, 1% Triton X-100, 0.5 mM EDTA, 1 mM […], […], lmg/ml aprotinin) and buffer B (RIPA buffer: Sigma catalog #R0278, containing protease and phosphatase inhibitor cocktails Sigma catalog #P2850, P5726 P8340) were added to the cells in culture dishes, the cells were scraped from the dish and the lysates transferred to eppendorf tubes and incubated at 4° C. for 20 min. Lysates were then clarified by centrifugation at 10,000 g, and the resulting supernatants were stored at −80° C. prior to the addition of SDS-PAGE sample buffer and analysis by immunoblotting. Alternatively, lysates were prepared by the direct addition of SDS-PAGE sample buffer to the cultures, and samples were prepared for analysis by sonication for 5 min followed by heating to 100° C. for 5 min. Alternatively, lysates were prepared by the addition of PROTEOEXTRACT® solution (complete mammalian proteome extraction kit, Calbiochem, #539779) including 16.5 IU of BENZONASE® (Novagen, Inc., Madison, Wis.) followed by shaking for 30 minutes at room temperature. Samples prepared by this method were either diluted directly into SDS-PAGE sample buffer for analysis by immunoblotting, or were diluted 10-fold in buffer A for analysis in antibody capture ELISA assays. Tumor lysates were prepared using the PROTEOEXTRACT® complete mammalian proteome extraction kit (Calbiochem, #539779). Approximately 300 mg samples of tumor sample were homogenized and dispersed in […] resuspension buffer, then 2.4 mL extraction reagent and 150 μl reducing agent were added and the samples were mixed thoroughly. […]

[1] = 10 μM for 1 h prior to lysis, immunoblotting (FIG. 3)
[2] = 10 μM, time course up to 24 h (FIG. 4)

SMILES | rank order of potency for reduction of MYPT1 phosphorylation | level of MYPT1 phosphorylation [1] | total MYPT1 protein content of the extracts [1] | incubation time necessary to maximally reduce steady-state phosphorylation of MYPT1 T696 [2] | time to maximal reduction of steady-state phosphorylation of MYPT1 (T853) [2]
Cc1cncc2cccc(S(=O)(=O)N3CCCNC[C@@H]3C)c12 [H1152] | H1152>Y27632>HA1077 |  |  |  | 
O=S(=O)(c1cccc2cnccc12)N1CCCNCC1 [HA1077] | H1152>Y27632>HA1077 |  |  |  | 
C[C@@H](N)[C@H]1CC[C@H](C(=O)Nc2ccncc2)CC1 [Y27632] | H1152>Y27632>HA1077 | significantly reduced | without affecting significantly | at least 8 hours | 30 to 60 min
